The values below come from publication PMC4877059 (Journal of medicinal chemistry, 2013).

pIC50: −log10 of the molar value. Like-named read-outs stand apart in the source and are kept apart here. Where only a bound is given, the exact number is not on record here.

Data set [1] can be described thus: Stability in aqueous buffers. The class given is physicochemical. To be noted: HBBS or PBS, 48 hours.
In data set [2] the target is T1, NPSR (Homo sapiens, UniProt Q6W5P4).
T1 sequence (Q6W5P4 1-371): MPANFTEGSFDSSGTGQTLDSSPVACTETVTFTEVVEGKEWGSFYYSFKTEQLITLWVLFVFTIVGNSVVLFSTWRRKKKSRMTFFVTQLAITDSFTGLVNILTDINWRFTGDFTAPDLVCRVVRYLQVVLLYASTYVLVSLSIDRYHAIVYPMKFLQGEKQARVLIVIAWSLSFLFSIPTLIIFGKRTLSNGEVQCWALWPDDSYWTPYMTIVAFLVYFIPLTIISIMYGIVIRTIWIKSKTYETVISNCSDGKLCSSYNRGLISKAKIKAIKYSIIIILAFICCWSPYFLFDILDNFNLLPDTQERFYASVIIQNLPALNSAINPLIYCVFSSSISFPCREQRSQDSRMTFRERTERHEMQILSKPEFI
As to the kind of experiment: ERK assay. The class given is cell-based.

Data set [3] concerns the target T1, NPSR. As to the kind of experiment: Calcium mobilization assay in CHO-NPSR cells. The class given is cell-based. A general note: Calcium assays in cells follow changes in intracellular calcium, usually with a dye or a luminescent sensor.
Data set [4] relates to NPS-induced hyperlocomotion. The note with it: 50 mpk IP, 90 minute mouse model; cited from earlier work.
For data set [5] the following is noted: 15 min; cited from earlier work.
The target of data set [6] is T1, NPSR. As to the kind of experiment: cAMP assay. The format is cell-based. The note with it: relative to 1b. For orientation: Changes in cAMP serve as a functional read-out for many G protein-coupled receptors.
Data set [7] deals with ERK phosphorylation. To be noted: rats, 1 mpk; cited from earlier work.
Data set [8] can be described thus: Solubility in PBS. The format is physicochemical. The note with it: aqueous buffer.
Data set [9] concerns 55 targets. As to the kind of experiment: Profiling at 10 µM against 55 targets.
Data set [10] deals with Wistar rats. As to the kind of experiment: Rat palatable food intake model. The class given is in vivo.
Data set [11] can be described thus: Stability after incubation in mouse liver microsomes. The note with it: 0 min. A general note: Liver microsomes are a subcellular fraction often used to study metabolism.
In data set [12] the target is T1, NPSR. As to the kind of experiment: [125I] Y10-hNPS binding. The note with it: relative to 1b.
Data set [13] has as its target Human Recombinant µ-Opioid Receptor OPRM1 (Homo sapiens, UniProt P35372). The class given is binding.
Data set [14] is described as follows: Mouse pharmacokinetics, 10 mpk IP. The class given is in vivo.
Data set [15] concerns rats. The note with it: cited from earlier work.
For data set [16], the system named is Wistar rats. To be noted: rat food intake model; cited from earlier work.
For data set [17] the following is noted: 0 h.
The subject of data set [18] is NPSR. To be noted: 30 mpk IP, discrete regions of the rat brain; cited from earlier work.

Sequence of Human Recombinant µ-Opioid Receptor OPRM1 (P35372 whole entry): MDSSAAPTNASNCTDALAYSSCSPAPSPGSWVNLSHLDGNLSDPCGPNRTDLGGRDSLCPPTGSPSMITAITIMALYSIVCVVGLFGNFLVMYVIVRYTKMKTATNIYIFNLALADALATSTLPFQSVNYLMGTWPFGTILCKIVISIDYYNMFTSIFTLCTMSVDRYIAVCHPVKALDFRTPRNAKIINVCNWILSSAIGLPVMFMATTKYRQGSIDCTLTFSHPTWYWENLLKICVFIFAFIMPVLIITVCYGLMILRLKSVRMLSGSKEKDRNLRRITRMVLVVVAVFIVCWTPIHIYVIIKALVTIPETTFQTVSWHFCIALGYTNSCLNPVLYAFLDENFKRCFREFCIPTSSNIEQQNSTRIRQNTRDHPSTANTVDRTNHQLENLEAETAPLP

Turning to `Cc1c(P(=S)(c2ccccc2)c2ccccc2)[n+]2ccccc2n1C.[I-]` [compound 7, 3-(diphenylphosphorothioyl)-1,2-dimethylimidazo[1,2-a]pyridin-1-ium], the “chemical stability in aqueous buffers” value in [1] is listed as “did not decompose to any other species”.

The term pIC50 denotes the negative decadic logarithm of the IC50, by convention in mol/L. On to `Cc1c(P(=S)(c2ccccc2)c2ccccc2)n2ccccc2[n+]1CCCc1ccccc1` [20d, 3-(Diphenylphosphorothioyl)-2-methyl-1-(3-phenylpropyl)imidazo[1,2-a]pyridin-1-ium], for which the results for the pIC50 in data set [2] (IC50 in the ERK assay) and in [3] (IC50 in the calcium assay) were 8.70 and 9.00, respectively.

On to `O=C(NCc1ccc(F)cc1)N1CCN2C(=O)OC(c3ccccc3)(c3ccccc3)C2C1` (centres unmarked) [1b, 3-oxo-1,1-diphenyl-tetrahydro-oxazolo[3,4-a]pyrazine-7-carboxylic acid 4-fluoro-benzylamide], for which the “reduction of NPS-induced hyperlocomotion” value in [4] is on record as “about 50%”. For the same molecule, in data set [5], the brain level is about 6000 nM.

The kinetic solubility is solubility judged after dilution from a stock solution rather than from solid. One may read the solubility (thermodynamic) as the concentration in solution at equilibrium with solid. With `Cc1c(P(=S)(c2ccccc2)c2ccccc2)n2ccccc2[n+]1C/C=C/c1ccccc1.[Br-]` [20e, 1-Cinnamyl-3-(diphenylphosphorothioyl)-2-methylimidazo[1,2-a]pyridin-1-ium], the “fold more potent than 1b in the cAMP assay” value in data set [6] was 9 fold. Further, in [7], the “alcohol induced ERK phosphorylation in the central amygdala” value is recorded as “reduce alcohol induced ERK phosphorylation”. In data set [8] (kinetic from dmso stock), this molecule came in with a solubility (kinetic) of over 150 µM. The thermodynamic solubility in data set [8] (thermodynamic from solid) was about 45 µM. The “inhibition of control in seven of 55 targets” value in data set [9] is given as over 90%. For the same molecule, the “reversal of NPS-induced suppression of palatable food intake” value in data set [10] (single 10 µg icv, before 10 µg NPS icv, 15, 30 and 60 min) was “reverse the suppression of food intake”. In addition, the results for the “% parent compd remaining after incubation in mouse liver microsomes” value in data set [11] (with NADPH) and in data set [11] (without NADPH) were 100% and 94%, respectively. Moreover, the “fold more potent than 1b in the displacement assay” value in data set [12] was determined as 5 fold. Further, the “fold more potent than 1b in the calcium assay” value in data set [3] (relative to 1b) was found to be 5 fold. In addition, the “fold activity relative to naloxone or morphine, DAMGO displacement” value in data set [13] is listed as under 200 fold. The “Brain concentration, mean” value is “BQL” in data set [14] (10 mpk IP, 0 hr); “BQL” in data set [14] (10 mpk IP, 0 hr, N=3); 30 nmol/g in data set [14] (10 mpk IP, 0.083 hr); 52 nmol/g in data set [14] (10 mpk IP, 0.25 hr); 53 nmol/g in data set [14] (10 mpk IP, 0.5 hr); 44 nmol/g in data set [14] (10 mpk IP, 1 hr). Moreover, the “Brain concentration, mean” value in data set [14] (10 mpk IP, 2 hr) is recorded as 57 nmol/g; in [14] (10 mpk IP, 4 hr), 53 nmol/g; in data set [14] (10 mpk IP, 8 hr) it was 60 nmol/g; in [14] (10 mpk IP, 12 hr), 93 nmol/g; in [14] (10 mpk IP, 24 hr), 52 nmol/g. Also, the “Plasma concentration, mean” value in data set [14] (10 mpk IP, 0 hr) was “BQL”; in data set [14] (10 mpk IP, 0 hr, N=3), “BQL”. The concentration at 1 h in data set [14] (plasma, ip, 10 mg/kg, Plasma concentration, mean, 10 mpk IP, 1 hr) was found to be 556 nM. Also, the concentration at 2 h in data set [14] (plasma, ip, 10 mg/kg, Plasma concentration, mean, 10 mpk IP, 2 hr) was 386 nM. Moreover, the concentration at 4 h in data set [14] (plasma, ip, 10 mg/kg, Plasma concentration, mean, 10 mpk IP, 4 hr) stood at 245 nM. The concentration at 8 h in data set [14] (plasma, ip, 10 mg/kg, Plasma concentration, mean, 10 mpk IP, 8 hr) was 214 nM. Also, the concentration at 12 h in data set [14] (plasma, ip, 10 mg/kg, Plasma concentration, mean, 10 mpk IP, 12 hr) was 126 nM. Further, the concentration at 24 h in data set [14] (plasma, ip, 10 mg/kg, Plasma concentration, mean, 10 mpk IP, 24 hr) turned out to be 54 nM. Besides, the adverse reactions result in data set [14] (single 10 mpk IP dose) is on record as “No adverse reactions were observed”. Further, in data set [15] (IP dose of 1.0 mpk), the “efficacy in rat alcohol models” value is “show efficacy”. In data set [15] (dose as low as 1 mpk), the “alcohol self administration in rats” value is listed as “supression of alcohol self administartion”.

As to `Cc1nc2ccccn2c1P(=S)(c1ccccc1)c1ccccc1` [12d, 3-(Diphenylphosphorothioyl)-2-methylimidazo[1,2-a]pyridine], the pIC50 in data set [2] (ERK IC50, Table 1, CHO-NPS cells, 1 nM NPS (EC80), one experiment in duplicate) was 7.52.

With [D-Cys(tBU)^5]NPS, the “reversal of the anorectic effect of NPS” value in data set [16] is given as “reverse the anorectic effect of NPS”.

For `C[n+]1cc(P(=S)(c2ccccc2)c2ccccc2)n2ccccc21` [13a, 3-(Diphenylphosphorothioyl)-1-methylimidazo[1,2-a]pyridin-1-ium], the “ERK assay inhibition at the highest concentration tested” value in [2] (Table 1 footnote b, 50 µM) is reported as under 50% ^b.

Regarding `CCC(C)(CCN1CCOCC1)N(Cc1cc2ccccc2n(C)c1=O)C(=O)C1CCCCC1` (centres unmarked) [compound 2], the “% parent compd remaining after incubation in mouse liver microsomes” value in data set [17] turned out to be 100%. Besides, the “ex vivo occupancy of NPSR” value in data set [18] is “high ex vivo occupancy of NPSR”.

As for “NPS: neuropeptide S, peptide sequence SFRNGVGTGMKKTSFQRAKS, endogenous agonist of NPSR [reference compound]”, in data set [10] (10 µg NPS icv, 15, 30 and 60 min), the palatable food intake result is “marked reduction in food intake”.
